In patent publication US6465457B1 (priority 1991, dated 2002):
Like-named read-outs stand apart in the source and are kept apart here.

Experiments:
Assay type in all cases: in vivo
[1] = tested on: Plasmopara viticola (Vines); assay: Foliar fungal disease test on plants: Plasmopara viticola (Vines); settings: one or two days before inoculation
[2] = tested on: Phytophthora infestans (Tomatoes); settings: one or two days before inoculation
[3] = tested on: Venturia inaequalis (Apples); assay: Foliar fungal disease test on plants: Venturia inaequalis (Apples); settings: one or two days before inoculation
[4] = tested on: Erysiphe graminis tritici (Wheat); assay: Foliar fungal disease test on plants: Erysiphe graminis tritici (Wheat); settings: plants inoculated 24 hours before treatment
Septoria nodorum (Wheat) = assay: Foliar fungal disease test on plants: Septoria nodorum (Wheat); settings: one or two days before inoculation
[5] = tested on: Puccinia recondita (Wheat); assay: Foliar fungal disease test on plants: Puccinia recondita (Wheat)
[6] = tested on: Pyricularia oryzae (Rice); settings: one or two days before inoculation
[7] = tested on: Thanatephorus cucumeries (Rice); assay: Foliar fungal disease test on plants: Thanatephorus cucumeries (Rice); settings: one or two days before inoculation
[8] = 10 ppm foliar spray only, plants inoculated with Puccinia recondita 48 hours before treatment
[9] = 100 ppm a.i. foliar spray or root drench (approx. 40 ppm in dry soil)
[10] = 100 ppm a.i. foliar spray or root drench, plants inoculated with Puccinia recondita 48 hours before treatment

Structure (SMILES)	POCO (Percentage of Control) disease level, Plasmopara viticola (Vines) ([1]; 10 ppm foliar spray only)	POCO (Percentage of Control) disease level, Phytophthora infestans (Tomatoes) ([2]; 10 ppm foliar spray only)	POCO (Percentage of Control) disease level, Venturia inaequalis (Apples) ([3]; 10 ppm foliar spray only)	POCO (Percentage of Control) disease level, Erysiphe graminis tritici (Wheat) ([4]; 10 ppm foliar spray only)	POCO (Percentage of Control) disease level, Septoria nodorum (Wheat) (Septoria nodorum (Wheat); 10 ppm foliar spray only)	POCO (Percentage of Control) disease level, Puccinia recondita (Wheat) [5, 8]	POCO (Percentage of Control) disease level, Pyricularia oryzae (Rice) ([6]; 10 ppm foliar spray only)	POCO (Percentage of Control) disease level, Thanatephorus cucumeries (Rice) ([7]; 10 ppm foliar spray only)	POCO (Percentage of Control) disease level, Plasmopara viticola (Vines) [1, 9]	POCO (Percentage of Control) disease level, Phytophthora infestans (Tomatoes) [2, 9]	POCO (Percentage of Control) disease level, Venturia inaequalis (Apples) [3, 9]	POCO (Percentage of Control) disease level, Erysiphe graminis tritici (Wheat) [4, 9]	POCO (Percentage of Control) disease level, Septoria nodorum (Wheat) (Septoria nodorum (Wheat); [9])	POCO (Percentage of Control) disease level, Puccinia recondita (Wheat) ([5]; 100 ppm a.i. foliar spray or root drench (approx. 40 ppm in dry soil), one or two days before inoculation)	POCO (Percentage of Control) disease level, Pyricularia oryzae (Rice) [6, 9]	POCO (Percentage of Control) disease level, Thanatephorus cucumeries (Rice) [7, 9]	POCO (Percentage of Control) disease level, Puccinia recondita (Wheat) [5, 10]	POCO (Percentage of Control) disease level, Puccinia recondita (Wheat) ([5]; 10 ppm foliar spray only, one or two days before inoculation)
COC=C(C(=O)OC)c1ccccc1COC(=O)N1CCc2ccccc21 [5 (133)]	90 (90 and 94 = 60.1-100% disease present)	90 (90 and 94 = 60.1-100% disease present)	90 (90 and 94 = 60.1-100% disease present)	60 (60 = 30.1-60% disease present)	90 (90 and 94 = 60.1-100% disease present)	90+ (90 and 94 = 60.1-100% disease present)	90 (90 and 94 = 60.1-100% disease present)	90 (90 and 94 = 60.1-100% disease present)	–	–	–	–	–	–	–	–	–	–
COC=C(C(=O)OC)c1ccccc1COC(=O)Nc1cccc([N+](=O)[O-])c1 [6 (1)]	–	–	–	–	–	–	–	–	90 (90 and 94 = 60.1-100% disease present)	60 (60 = 30.1-60% disease present)	60 (60 = 30.1-60% disease present)	90 (90 and 94 = 60.1-100% disease present)	30 (30 = 20.1-30% disease present)	90 (90 and 94 = 60.1-100% disease present)	90 (90 and 94 = 60.1-100% disease present)	90 (90 and 94 = 60.1-100% disease present)	–	–
COC=C(C(=O)OC)c1ccccc1COC(=O)N(CC(F)F)c1cccc([N+](=O)[O-])c1 [6 (5)]	90 (90 and 94 = 60.1-100% disease present)	90 (90 and 94 = 60.1-100% disease present)	0 (0 = 0% disease present)	20 (20 and 24 = 10.1-20% disease present)	90 (90 and 94 = 60.1-100% disease present)	90+ (90 and 94 = 60.1-100% disease present)	60 (60 = 30.1-60% disease present)	90 (90 and 94 = 60.1-100% disease present)	–	–	–	–	–	–	–	–	–	–
COC=C(C(=O)OC)c1ccccc1COC(=S)Nc1cccc(OC)c1 [7 (6)]	60 (60 = 30.1-60% disease present)	90 (90 and 94 = 60.1-100% disease present)	60 (60 = 30.1-60% disease present)	0 (0 = 0% disease present)	90 (90 and 94 = 60.1-100% disease present)	0+ (0 = 0% disease present)	10 (10 = 5.1-10% disease present)	30 (30 = 20.1-30% disease present)	–	–	–	–	–	–	–	–	–	–
COC=C(C(=O)OC)c1ccccc1COC(=O)Nc1cccc(F)c1 [8 (1)]	90 (90 and 94 = 60.1-100% disease present)	90 (90 and 94 = 60.1-100% disease present)	0 (0 = 0% disease present)	60 (60 = 30.1-60% disease present)	90 (90 and 94 = 60.1-100% disease present)	0+ (0 = 0% disease present)	10 (10 = 5.1-10% disease present)	90 (90 and 94 = 60.1-100% disease present)	–	–	–	–	–	–	–	–	–	–
COC=C(C(=O)OC)c1ccccc1COC(=O)N(C)c1cccc(F)c1 [8 (2)]	–	–	–	–	–	–	–	–	0 (0 = 0% disease present)	0 (0 = 0% disease present)	0 (0 = 0% disease present)	0 (0 = 0% disease present)	0 (0 = 0% disease present)	–	0 (0 = 0% disease present)	0 (0 = 0% disease present)	0+ (0 = 0% disease present)	–
COC=C(C(=O)OC)c1ccccc1COC(=S)Nc1cccc(F)c1 [8 (6)]	60 (60 = 30.1-60% disease present)	90 (90 and 94 = 60.1-100% disease present)	60 (60 = 30.1-60% disease present)	90 (90 and 94 = 60.1-100% disease present)	90 (90 and 94 = 60.1-100% disease present)	–	30 (30 = 20.1-30% disease present)	90 (90 and 94 = 60.1-100% disease present)	–	–	–	–	–	–	–	–	–	90 (90 and 94 = 60.1-100% disease present)
COC=C(C(=O)OC)c1ccccc1COC(=O)N(Cc1ccccc1)c1cccc(F)c1 [8 (97)]	–	–	–	–	–	–	–	–	0 (0 = 0% disease present)	90 (90 and 94 = 60.1-100% disease present)	30 (30 = 20.1-30% disease present)	90 (90 and 94 = 60.1-100% disease present)	90 (90 and 94 = 60.1-100% disease present)	–	30 (30 = 20.1-30% disease present)	90 (90 and 94 = 60.1-100% disease present)	90+ (90 and 94 = 60.1-100% disease present)	–
COC=C(C(=O)OC)c1ccccc1COC(=O)N(C)c1cccc(SC)c1 [10 (2)]	–	–	–	–	–	–	–	–	0 (0 = 0% disease present)	20 (20 and 24 = 10.1-20% disease present)	0 (0 = 0% disease present)	0 (0 = 0% disease present)	0 (0 = 0% disease present)	–	0 (0 = 0% disease present)	20 (20 and 24 = 10.1-20% disease present)	0+ (0 = 0% disease present)	–
COC=C(C(=O)OC)c1ccccc1COC(=O)Nc1ccccc1Cl [12 (1)]	–	–	–	–	–	–	–	–	0 (0 = 0% disease present)	30 (30 = 20.1-30% disease present)	0 (0 = 0% disease present)	0 (0 = 0% disease present)	10 (10 = 5.1-10% disease present)	–	5 (5 = 3.1-5% disease present)	30 (30 = 20.1-30% disease present)	10+ (10 = 5.1-10% disease present)	–
COC=C(C(=O)OC)c1ccccc1COC(=O)N(C)c1ccccc1Cl [12 (2)]	–	–	–	–	–	–	–	–	0 (0 = 0% disease present)	5 (5 = 3.1-5% disease present)	0 (0 = 0% disease present)	0 (0 = 0% disease present)	3 (3 = 1.1-3% disease present)	–	10 (10 = 5.1-10% disease present)	0 (0 = 0% disease present)	30+ (30 = 20.1-30% disease present)	–
